{"source": "patent US20240366813A1", "about": "“PEPTIDE-UREA DERIVATIVE, PHARMACEUTICAL COMPOSITION CONTAINING SAME AND APPLICATION THEREOF” (Bivision Pharmaceuticals, Inc., priority 0001, published 2024)", "key": {"plasma protein": {"test_system": "plasma protein", "assay": "Determination of plasma protein binding (PPB)", "type": "in vitro ADME", "details": "^177Lu-labeled, 37° C., 10 min, ultrafiltration, FIG. 6", "description": "Three EP tubes were taken, and 0.2 mL of plasma and 50 μL of ^177Lu-labeled compound were added to each tube. The mixture was incubated in a thermostat at 37° C. for 10 min, and then taken out and added to ultrafiltration tubes, respectively. The ultrafiltration tubes were centrifuged at 13,000 rpm for 45 min. 50 μL of normal saline was then added, and the mixture was centrifuged for another 15 minutes. The radioactive counts per minute of each tube casing and filtrate were then measured. PPB was calculated, and the mean of 3 tubes was recorded. PPB=[(supernatant counts-background counts)]/(subnatant counts+supernatant counts−2*background counts)]*100."}, "22rv1 xenograft tumor": {"test_system": "22rv1 xenograft tumor", "assay": "Pharmacodynamic study in 22rv1 mouse xenograft tumor model (effect example 11)", "type": "in vivo, mice", "details": "for TGITV (relative tumor inhibition rate): Day 19; for Tumor volume, Administration in groups Day 19: mean ± standard error"}, "[1]": {"test_system": "PSMA-positive (22RV1) tumor", "assay": "Specificity test, PET/CT in PSMA-positive (22RV1) tumor-bearing mice with and without PMPA", "type": "in vivo", "details": "^68Ga-E3 co-injected with PMPA (2 mg/Kg), FIG. 4", "description": "The ^68Ga-E3 radiolabeled compound was injected into the tail vein of PSMA-positive (22RV1) tumor-bearing mice (Jiangsu Huajing Molecular Imaging and Drug Research Institute Co., Ltd.) (about 7.4 MBq/mouse, specific activity: 22423.82 KBq/μg) ([…]). After administration, PET/CT was used for 1 h dynamic scanning, medium resolution whole body CT, and 10 min static scanning at 2 h and 3 h. It can be clearly seen from FIG. 3 that the drug is rapidly distributed into the animal body after administration, and the drug is rapidly metabolized by the kidneys and excreted from the body over time.\nThe next day, the mixture of ^68Ga-E3 and PSMA standard PMPA (2 mg/Kg) was injected into the tail vein of PSMA-positive tumor-bearing mice (about 7.4 MBq/mouse, specific activity: 22423.82 KBq/μg) (50 uCi). After administration, PET/CT was used for 1 h dynamic scanning, medium resolution whole body CT, and 10 min static scanning at 2 h and 3 h. The results are depicted in detailed in FIG. 4.\nPMPA is a specific inhibitor of PSMA. When PMPA is administered together with ^68Ga-E3, ^68Ga-E3 and PMPA are rapidly distributed to various organs in the animal body. However, PMPA occupies the PSMA target on the tumor, thus preventing the binding of ^68Ga-E3 to PSMA on the tumor."}, "PSMA protein": {"target": "PSMA protein (Homo sapiens (Human), UniProt Q04609)", "sequence (Q04609 whole entry)": "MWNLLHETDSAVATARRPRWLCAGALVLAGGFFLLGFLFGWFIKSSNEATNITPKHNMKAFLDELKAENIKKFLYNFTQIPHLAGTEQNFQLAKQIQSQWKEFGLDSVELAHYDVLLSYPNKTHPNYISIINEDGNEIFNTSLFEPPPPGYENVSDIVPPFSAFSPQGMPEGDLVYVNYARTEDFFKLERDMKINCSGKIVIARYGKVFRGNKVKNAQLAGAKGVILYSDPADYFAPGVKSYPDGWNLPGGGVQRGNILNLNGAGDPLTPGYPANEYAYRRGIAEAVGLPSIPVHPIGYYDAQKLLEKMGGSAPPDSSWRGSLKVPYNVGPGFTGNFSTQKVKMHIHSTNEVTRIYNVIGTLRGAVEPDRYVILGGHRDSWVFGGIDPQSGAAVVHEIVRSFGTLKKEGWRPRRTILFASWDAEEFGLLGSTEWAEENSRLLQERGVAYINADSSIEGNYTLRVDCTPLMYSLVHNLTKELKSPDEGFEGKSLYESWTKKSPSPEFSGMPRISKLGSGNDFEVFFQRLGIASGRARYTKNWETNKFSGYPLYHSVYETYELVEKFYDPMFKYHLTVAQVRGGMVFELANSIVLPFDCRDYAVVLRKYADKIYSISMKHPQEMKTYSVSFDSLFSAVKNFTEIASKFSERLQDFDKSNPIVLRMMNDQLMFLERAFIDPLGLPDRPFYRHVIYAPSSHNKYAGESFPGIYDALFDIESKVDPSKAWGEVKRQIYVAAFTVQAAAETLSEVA", "assay": "In vitro binding test of compound and PSMA protein (Biacore)", "details": "Biacore 8K, 15° C., 1:1 binding model, KD in M; for Kd: read-out: pkD (pKD=−Log KD, binding affinity to PSMA protein) (converted)", "description": "A Biacore 8K (Cytiva) instrument was used to determine the binding affinity of disclosed compounds to the PSMA protein (Sinobiological). The PSMA protein was captured on SA chips. Before immobilizing the disclosed compounds (flow path 1 and 2, flow rate 10 μL/min), the PSMA protein was immobilized on flow path 2 by using flow buffer (10 μg/ml, flow rate 5 μL/min, injection time 600 s), and 1M NaCl was injected three times consecutively into 50 mM NaOH to condition the sensor surface. After each disclosed compounds injection, isopropanol in 1M NaCl and 50 mM NaOH was used for additional washing (flow path 1, 2, flow rate 10 μL/min, injection time 60 s).\nAll compounds were dissolved in 100% DMSO and diluted to 10 mM, and then diluted in test buffer (PBS, pH 7.4, 1 mM TCEP ([…]), 0.05% P20, 2% dimethyl sulfoxide) at an appropriate highest concentration. Analytes were run using the following conditions: 15° C. analysis temperature, analysis steps=all set to LMW kinetics; cycle type=single cycle (90 s contact time, 1800 s separation time, 30 ul/min flow rate, channels 1, 2); channel detection=2-1). Data were evaluated using Biacore Insight evaluation software, and data were fit to a 1:1 binding model.\nBiacore results are shown in Table 12: pKD=−Log KD, where KD is the binding affinity of the compounds to PSMA protein measured by Biacore. KD is expressed by KD (M)=Kd (1/s)/Ka (1/Ms)."}, "LNCAP cells": {"test_system": "LNCAP cells", "assay": "Cell binding test on LNCAP cells", "type": "cell-based", "details": "^177Lu-labeled, on ice 2 hours, FIG. 1", "description": "LNCAP cells in the logarithmic growth phase (Obio Technology (Shanghai) Corp., Ltd.) were made into a cell suspension. The cell suspension was adjusted to a cell density of 2×10^5/ml and inoculated 1 mL into a 24-well cell culture plate. Cells were incubated in an incubator at 37° C. for 48 hours. Three hours before the test, the medium was replaced with serum-free RPMI1640 medium (NEWZERUM), the cell culture medium was aspirated, and the cells were washed once with PBS. Serum-free RPMI1640 medium was used to prepare ^177Lu-E series compounds at concentrations of 32, 16, 8, 4, 1, 0.5, 0.1, 0.02, 0.01, 0.002 uCi/mL. The original medium was discarded, and then 1 mL of the prepared solution containing ^177Lu-E series compounds was added to each well. The plate was placed on ice for 2 hours, and then the cells were washed three times with 0.5 mL of ice-cold PBS. The washing solution was aspirated, and the cells were lysed with 0.5 mL of 1M NaOH and washed twice with 0.5 mL of PBS, and the sodium hydroxide (0.5 mL) and PBS (0.5 mL×2) solutions were collected. The uptake counts were determined."}, "[2]": {"assay": "Determination of Log P (n-octanol/water)", "type": "physicochemical", "details": "room temperature, FIG. 5", "description": "Three EP tubes were taken, and 0.5 mL of saturated n-octanol and 480 μL of ultrapure water were added into each EP tube. 20 μL (about 1 MBq) solution of E series compounds and reference compound were then added respectively. The mixture was shaken evenly and then centrifuged at room temperature (2000 r/min, 5 min, centrifugal radius: 10 cm). 100 μL was taken from the lipid layer and aqueous layer of each tube, and the radioactive counts per minute of the two phases were measured. The Log P value was calculated and the results were averaged."}, "[3]": {"details": "300 μCi of ^177Lu-labeled test sample"}, "[4]": {"details": "600 μCi of ^177Lu-labeled test sample"}}}
{"smiles": "O=C(O)CC[C@H](NC(=O)NC(CCCCNC(=O)[C@H](Cc1ccc2ccccc2c1)NC(=O)c1ccc2c(c1)CCN(C(=O)CN1CCN(CC(=O)O)CCN(CC(=O)O)CCN(CC(=O)O)CC1)C2)C(=O)O)C(=O)O", "note": "(stereo partly shown) [Compound E3]", "values": [{"measurement": "PPB binding rate", "setting": "plasma protein", "value": "extremely high"}, {"measurement": "TGITV (relative tumor inhibition rate)", "setting": "22rv1 xenograft tumor; [3]", "value": 71.00, "unit": "%"}, {"measurement": "Tumor volume, Administration in groups Day 19", "setting": "22rv1 xenograft tumor; [3]", "value": "590.66 ± 103.97", "unit": "mm^3"}, {"measurement": "TGITV (relative tumor inhibition rate)", "setting": "22rv1 xenograft tumor; [4]", "value": 80.42, "unit": "%"}, {"measurement": "Tumor volume, Administration in groups Day 19", "setting": "22rv1 xenograft tumor; [4]", "value": "447.12 ± 47.84", "unit": "mm^3"}, {"measurement": "specificity against PSMA", "setting": "[1]", "value": "high specificity"}, {"measurement": "pkD (pKD=−Log KD, binding affinity to PSMA protein)", "setting": "PSMA protein", "value": 9.26}]}
{"smiles": "O=C(O)CC[C@H](NC(=O)N[C@@H](CCCCNC(=O)[C@H](Cc1ccc2ccccc2c1)NC(=O)[C@H]1CC[C@H](CNC(=O)CN2CCN(CC(=O)O)CCN(CC(=O)O)CCN(CC(=O)O)CC2)CC1)C(=O)O)C(=O)O", "note": "[PSMA-617, reference compound]", "values": [{"measurement": "TGITV (relative tumor inhibition rate)", "setting": "22rv1 xenograft tumor; [3]", "value": 15.49, "unit": "%"}, {"measurement": "Tumor volume, Administration in groups Day 19", "setting": "22rv1 xenograft tumor; [3]", "value": "1,480.09 ± 446.83 mm^3"}, {"measurement": "TGITV (relative tumor inhibition rate)", "setting": "22rv1 xenograft tumor; [4]", "value": 21.18, "unit": "%"}, {"measurement": "Tumor volume, Administration in groups Day 19", "setting": "22rv1 xenograft tumor; [4]", "value": "1,389.81 ± 598.96 mm^3"}, {"measurement": "Kd", "setting": "PSMA protein", "value": 0.00204, "unit": "nM"}]}
{"smiles": "O=C(O)CC[C@H](NC(=O)N[C@@H](CCCCNC(=O)[C@H](Cc1ccc2ccccc2c1)NC(=O)c1cnc2cc(NC(=O)CN3CCN(CC(=O)O)CCN(CC(=O)O)CCN(CC(=O)O)CC3)ccc2c1)C(=O)O)C(=O)O", "note": "[Compound E25]", "values": [{"measurement": "pkD (pKD=−Log KD, binding affinity to PSMA protein)", "setting": "PSMA protein", "value": 10.15}]}
{"smiles": "O=C(O)CC[C@H](NC(=O)N[C@@H](CCCCNC(=O)[C@H](Cc1ccc2ccccc2c1)NC(=O)C1C2CN(C(=O)CN3CCN(CC(=O)O)CCN(CC(=O)O)CCN(CC(=O)O)CC3)CC21)C(=O)O)C(=O)O", "note": "(stereo partly shown) [Compound E8]", "values": [{"measurement": "pkD (pKD=−Log KD, binding affinity to PSMA protein)", "setting": "PSMA protein", "value": 9.49}]}
{"smiles": "O=C(O)CC[C@H](NC(=O)NC(CCCCNC(=O)[C@H](Cc1ccc2ccccc2c1)NC(=O)C1CCC2(CC1)CCN(C(=O)CN1CCN(CC(=O)O)CCN(CC(=O)O)CCN(CC(=O)O)CC1)CC2)C(=O)O)C(=O)O", "note": "(stereo partly shown) [Compound E9]", "values": [{"measurement": "Kd", "setting": "PSMA protein", "value": 0.282, "unit": "nM"}]}
{"smiles": "O=C(O)CC[C@H](NC(=O)N[C@@H](CCCCNC(=O)[C@H](Cc1ccc2ccccc2c1)NC(=O)c1ccc2cc(NC(=O)CN3CCN(CC(=O)O)CCN(CC(=O)O)CCN(CC(=O)O)CC3)ccc2c1)C(=O)O)C(=O)O", "note": "[Compound E21]", "values": [{"measurement": "pkD (pKD=−Log KD, binding affinity to PSMA protein)", "setting": "PSMA protein", "value": 9.82}]}
{"smiles": "O=C(O)CC[C@H](NC(=O)N[C@@H](CCCCNC(=O)[C@H](Cc1ccc2ccccc2c1)NC(=O)C1CCC(NC(=O)CN2CCN(CC(=O)O)CCN(CC(=O)O)CCN(CC(=O)O)CC2)CC1)C(=O)O)C(=O)O", "note": "(stereo partly shown) [Compound E26]", "values": [{"measurement": "cell binding ability", "setting": "LNCAP cells", "value": "excellent cell binding ability"}, {"measurement": "pkD (pKD=−Log KD, binding affinity to PSMA protein)", "setting": "PSMA protein", "value": 9.44}, {"measurement": "lipophilicity (Log P) compared with the reference compound PSMA-617", "setting": "[2]", "value": "better lipophilicity"}]}
